Results on 26 compounds are retold here after US6403607B1, “Sulfonamide derivatives and drugs containing the same as the active ingredient” (priority 1998, dated 2002).

Bounds are passed on as bounds.

Data set [1] relates to ethanol ulcer in the gland gastric region. The data set can be described thus: Ethanol ulcer. It counts as in vivo. As to conditions: rats fasted 24 hours, drug oral, 99.5% ethanol 1 ml/rat after one hour, size of ulcer one hour later; for Suppression: dose not given. As for the experimental part: Ethanol Ulcer Rats were fasted for 24 hours and orally administered with a drug. After one hour, 99.5% ethanol (1 ml/rat) was fed through oral administration. After one hour of ethanol administration, the abdomens of the rats were dissected and the size of ulcer in the gland gastric region was measured for each rat.

The subject of data set [2] is HCl-ethanol ulcer in the gland gastric region. The data set can be described thus: HCl-ethanol ulcer. The class given is in vivo, Rats. As to conditions: rats fasted 24 hours, drug oral, 60% ethanol containing 0.15 N hydrochloric acid 1 ml/rat after one hour, size of ulcer one hour later; dose not given. As for the experimental part: HCl-ethanol Ulcer Rats were fasted for 24 hours and orally administered with a drug. After one hour, 60% ethanol containing 0.15 N hydrochloric acid (1 ml/rat) was perorally administered to each rat. One hour after ethanol administration, the size of ulcer in the gland gastric region was measured for evaluation of anti-ulcer effects of the drug.

Data set [3] relates to Helicobacter pylori. The data set can be described thus: Anti-Helicobacter-pylori action (agar plate dilution MIC). It counts as cell-based. As to conditions: clinically isolated 10 bacterial strains, agar plate dilution method. As for the experimental part: Anti-Helicobacter-pylori Action
Using clinically isolated 10 bacterial strains, the minimum inhibitory concentration (MIC) was measured according to the agar plate dilution method.

Data set [4] concerns rat red blood cell. The data set can be described thus: Hemolytic action. As to conditions: 10% rat red blood cell stock, 1% DMSO containing saline, 30 minutes at 37° C., absorbance 540 nm. It counts as cell-based. As for the experimental part: Hemolytic Action […] After incubation for 30 minutes at, 37° C., the mixture was centrifugally separated and the supernatant was obtained. The absorbance (540 nm) of the supernatant was measured. The hemolysis ratio was calculated.

Data set [5] addresses H/K-ATPase (Oryctolagus cuniculus, UniProt P27112). The data set can be described thus: H/K-ATPase inhibition. The class given is biochemical. To be noted: pH 7.4, H/K-ATPase from rabbit gastric mucous membrane. Here is the method:
H/K-ATPase Inhibition The inhibitory effect was measured under pH 7.4, by using H/K-ATPase isolated and purified from the rabbit gastric mucous membrane.

Broadly, the ED50 is the dose that gives a 50% effect, or the effect in half of the subjects. Low values mean greater potency, high ones weaker potency. What is called MIC is the lowest concentration found to suppress growth. Low readings indicate inhibition by little substance, high ones a need for much substance. The term HC50 denotes the concentration giving 50% haemolysis. A lower HC50 goes with stronger haemolysis. In general, IC50 refers to the midpoint of a concentration-inhibition curve. Lower therefore signals higher potency.

Sequence of H/K-ATPase (P27112 whole entry): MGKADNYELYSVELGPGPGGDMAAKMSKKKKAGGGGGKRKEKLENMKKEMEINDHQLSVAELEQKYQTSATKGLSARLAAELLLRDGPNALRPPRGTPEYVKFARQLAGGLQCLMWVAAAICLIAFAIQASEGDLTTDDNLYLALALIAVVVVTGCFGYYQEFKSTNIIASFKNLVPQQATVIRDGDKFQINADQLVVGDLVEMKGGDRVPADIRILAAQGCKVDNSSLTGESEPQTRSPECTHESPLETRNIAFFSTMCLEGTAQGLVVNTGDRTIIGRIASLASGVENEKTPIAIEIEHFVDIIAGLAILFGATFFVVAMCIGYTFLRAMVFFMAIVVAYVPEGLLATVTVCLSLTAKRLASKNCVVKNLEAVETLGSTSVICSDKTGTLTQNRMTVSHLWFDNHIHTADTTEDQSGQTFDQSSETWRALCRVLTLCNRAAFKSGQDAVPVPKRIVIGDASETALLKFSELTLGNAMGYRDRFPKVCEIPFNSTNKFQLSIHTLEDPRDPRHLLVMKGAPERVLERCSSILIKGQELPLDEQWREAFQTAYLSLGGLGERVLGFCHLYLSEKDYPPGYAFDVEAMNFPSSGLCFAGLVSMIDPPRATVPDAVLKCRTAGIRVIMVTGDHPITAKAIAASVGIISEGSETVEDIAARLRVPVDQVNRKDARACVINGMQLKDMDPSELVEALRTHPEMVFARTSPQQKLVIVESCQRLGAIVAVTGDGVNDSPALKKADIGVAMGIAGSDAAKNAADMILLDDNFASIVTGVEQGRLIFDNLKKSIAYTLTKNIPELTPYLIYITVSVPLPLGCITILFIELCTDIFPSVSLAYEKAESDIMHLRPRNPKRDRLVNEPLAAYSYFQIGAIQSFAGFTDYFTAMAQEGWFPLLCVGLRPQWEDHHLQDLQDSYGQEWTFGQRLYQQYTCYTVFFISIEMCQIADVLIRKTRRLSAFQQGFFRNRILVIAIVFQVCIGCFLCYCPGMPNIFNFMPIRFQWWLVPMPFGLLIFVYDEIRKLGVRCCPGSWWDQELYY
Sequence of H/K-ATPase (P18597 whole entry partner): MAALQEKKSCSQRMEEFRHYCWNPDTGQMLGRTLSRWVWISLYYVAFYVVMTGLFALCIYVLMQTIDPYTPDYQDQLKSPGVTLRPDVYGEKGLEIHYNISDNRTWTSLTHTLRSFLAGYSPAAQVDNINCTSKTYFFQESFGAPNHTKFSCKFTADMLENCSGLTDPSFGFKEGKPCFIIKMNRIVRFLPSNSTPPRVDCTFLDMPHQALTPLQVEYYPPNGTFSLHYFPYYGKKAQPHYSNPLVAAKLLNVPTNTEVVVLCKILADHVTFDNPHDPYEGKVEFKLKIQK

With `CN(C)CCN(c1ccccc1NCCOc1ccc(Cl)cc1)S(=O)(=O)c1ccc(Cl)cc1.CN(C)CCN(c1ccccc1NCCOc1ccc(Cl)cc1)S(=O)(=O)c1ccc(Cl)cc1.O=C(O)C(O)C(O)C(=O)O` [Example 3, N-(4-Chlorobenzenesulfonyl)-N-(2-dimethylaminoethyl)-N′-[2-(4-chlorophenoxy)ethyl]-o-phenylenediamine ½ Tartaric Acid Salt], in data set [1], the ED50 stood at 14 mg/kg and the Suppression came to 88%. In addition, in data set [2], the Suppression is 91%. The MIC in data set [3] is 0.78 to 3.13 µg/mL. Moreover, the HC50 in data set [4] stood at 72.3 µg/mL.

In the case of `CCS(=O)(=O)N(CCOCCN)c1ccccc1NCCOc1ccc(Cl)cc1` [Example 23, N-[2-(2-Amino)ethoxyethyl]-N-(1-ethanesulfonyl)-N′-[2-(4-chlorophenoxy)ethyl]-o-phenylenediamine], the Suppression in data set [1] was found to be 98%. In addition, the midpoint of inhibition in data set [5], the IC50, lay at 230 µM.

In turn, `CCCCCS(=O)(=O)N(CCOCCN)c1ccccc1NCCOc1ccc(Cl)cc1` [Example 27, N-[2-(2-Amino)ethoxyethyl]-N-(1-pentanesulfonyl)-N′-[2-(4-chlorophenoxy)ethyl]-o-phenylenediamine] showed a half-inhibitory concentration (IC50) in data set [5] of 38 µM.

As for `CCCCCCS(=O)(=O)N(CCOCCN)c1ccccc1NCCOc1ccc(Cl)cc1` [Example 28, N-[2-(2-Amino)ethoxyethyl]-N-(1-hexanesulfonyl)-N′-[2-(4-chlorophenoxy)ethyl]-o-phenylenediamine], in data set [1], the Suppression was 100%. This compound displayed an IC50 in data set [5] of 79 µM.

Compound `CCCCCCCS(=O)(=O)N(CCOCCN)c1ccccc1NCCOc1ccc(Cl)cc1` [Example 29, N-[2-(2-Amino)ethoxyethyl]-N-(1-heptanesulfonyl)-N′-[2-(4-chlorophenoxy)ethyl]-o-phenylenediamine] registered an IC50 in data set [5] of 5 µM.

Consider `CCS(=O)(=O)N(CCN(C)C)c1ccccc1NCCOc1ccc(Cl)cc1.Cl` [Example 30, N-[2-(Dimethylamino)ethyl]-N-ethanesulfonyl-N′-[2-(4-chlorophenoxy)ethyl]-o-phenylenediamine Hydrochloride], for which the HC50 in data set [4] is over 100 µg/mL.

For `CCCCCCS(=O)(=O)N(CCN(C)C)c1ccccc1NCCOc1ccc(Cl)cc1.Cl` [Example 32, N-[2-(Dimethylamino)ethyl]-N-(1-hexanesulfonyl)-N′-[2-(4-chlorophenoxy)ethyl]-o-phenylenediamine Hydrochloride], in data set [2], the Suppression was found to be 88%. For the same compound, the HC50 in data set [4] was over 100 µg/mL.

Consider `COc1ccc(S(=O)(=O)N(CCN(C)C)c2ccccc2NCCOc2ccc(Cl)cc2)cc1.Cl` [Example 40, N-[2-(Dimethylamino)ethyl]-N-(4-methoxybenzenesulfonyl)-N′-[2-(4-chlorophenoxy)ethyl]-o-phenylenediamine Hydrochloride], for which the Suppression in data set [2] stood at 88%. For the same compound, in data set [4], the HC50 was over 100 µg/mL.

Compound `CN(C)CCN(c1ccccc1NCCOc1ccc(Cl)cc1)S(=O)(=O)c1ccc(F)cc1.Cl` [Example 42, N-[2-(Dimethylamino)ethyl]-N-(4-fluorobenzenesulfonyl)-N′-[2-(4-chlorophenoxy)ethyl]-o-phenylenediamine Hydrochloride] gave a Suppression in data set [2] of 91%. Besides, the HC50 in data set [4] was over 100 µg/mL.

`CN(C)CCN(c1ccccc1NCCOc1ccccc1)S(=O)(=O)c1ccc(Cl)cc1.Cl` [Example 50, N-[2-(Dimethylamino)ethyl]-N-(4-chlorobenzenesulfonyl)-N′-(2-phenoxyethyl)-o-phenylenediamine Hydrochloride]: the Suppression in data set [2] was found to be 81%. The HC50 in data set [4] was over 100 µg/mL.

Compound `CN(C)CCN(c1ccccc1NCCOc1ccc(Cl)cc1)S(=O)(=O)c1ccccc1Cl.Cl` [Example 51, N-[2-(Dimethylamino)ethyl]-N-(2-chlorobenzenesulfonyl)-N′-[2-(4-chlorophenoxy)ethyl]-o-phenylenediamine Hydrochloride] came in with a Suppression in data set [2] of 83%. In data set [4], the HC50 came to 84.6 µg/mL.

For `Cc1ccc(OCCNc2ccccc2N(CCN(C)C)S(=O)(=O)c2ccc(Cl)cc2)cc1.Cl` [Example 53, N-[2-(Dimethylamino)ethyl]-N-(4-chlorobenzenesulfonyl)-N′-[2-(4-methylphenoxy)ethyl]-o-phenylenediamine Hydrochloride], the Suppression in data set [2] is on record as 92%.

`CN(C)CCN(c1ccccc1NCCOc1ccc(Br)cc1)S(=O)(=O)c1ccc(Cl)cc1.Cl` [Example 54, N-[2-(Dimethylamino)ethyl]-N-(4-chlorobenzenesulfonyl)-N′-[2-(4-bromophenoxy)ethyl]-o-phenylenediamine Hydrochloride]: the Suppression in data set [2] was 77%.

The compound `CN(C)CCN(c1cccc(NCCOc2ccc(Cl)cc2)c1)S(=O)(=O)c1ccc(Cl)cc1.Cl` [Example 55, N-[2-(Dimethylamino)ethyl]-N-(4-chlorobenzenesulfonyl)-N′-[2-(4-chlorophenoxy)ethyl]-m-phenylenediamine Hydrochloride] had a Suppression in data set [2] of 88%.

Consider `CN(C)CCN(c1ccc(NCCOc2ccc(Cl)cc2)cc1)S(=O)(=O)c1ccccc1Cl.Cl` [Example 56, N-[2-(Dimethylamino)ethyl]-N-(2-chlorobenzenesulfonyl)-N′-[2-(4-chlorophenoxy)ethyl]-p-phenylenediamine Hydrochloride], for which, in data set [2], the Suppression came out at 88%.

In turn, `CN(C)CCN(c1ccccc1NCCOc1ccc(Cl)cc1)S(=O)(=O)c1cccc2cnccc12.Cl` [Example 57, N-[2-(Dimethylamino)ethyl]-N-(5-isoquinolinesulfonyl)-N′-[2-(4-chlorophenoxy)ethyl]-o-phenylenediamine Hydrochloride] displayed a concentration for 50% haemolysis (HC50) in data set [4] of over 100 µg/mL.

`CN(C)CCN(c1ccccc1NCCOc1cccc(Cl)c1)S(=O)(=O)c1ccc(Cl)cc1.Cl` [Example 58, N-[2-(Dimethylamino)ethyl]-N-(4-chlorobenzenesulfonyl)-N′-[2-(3-chlorophenoxy)ethyl]-o-phenylenediamine Hydrochloride]: in data set [2], the Suppression is 88%. The compound further yielded an HC50 in data set [4] of 71.2 µg/mL.

`CN(C)CCN(c1ccccc1N(C)CCOc1ccc(Cl)cc1)S(=O)(=O)c1ccc(Cl)cc1.Cl` [Example 69]: the Suppression in data set [2] is reported as 99%.

As for `CN(C)CCN(c1ccccc1N(CCOc1ccc(Cl)cc1)Cc1ccccc1)S(=O)(=O)c1ccc(Cl)cc1.Cl` [Example 71, N-[2-(Dimethylamino)ethyl]-N-(4-chlorobenzenesulfonyl)-N′-benzyl-N′-[2-(4-chlorophenoxy)ethyl]-o-phenylenediamine Hydrochloride], the Suppression in data set [2] worked out at 99%.

In data set [1], `NCCN(c1cccnc1NCCNc1ccc(Cl)cc1)S(=O)(=O)c1ccc(Cl)cc1` [Example 86, 3-[N-(4-Chlorobenzenesulfonyl)-N-(2-aminoethyl)]amino-2-[2-(4-chlorophenyl)aminoethyl]aminopyridine] registered a Suppression of 79%. Half-maximal inhibition in data set [5] (IC50) was put at 1.1 µM.

`CN(C)CCN(c1ccccc1N1CCOCC1)S(=O)(=O)c1ccc(Cl)cc1.Cl` [Example 128, 2-(4-Morpholino)-1-[N-[2-(dimethylamino)ethyl]-N-(4-chlorobenzenesulfonyl)]aminobenzene Hydrochloride Salt] showed an HC50 in data set [4] of over 100 µg/mL.

In data set [4], `CN(C)CCN(c1ccccc1N1CCNCC1)S(=O)(=O)c1ccc(Cl)cc1.Cl` [Example 129, 2-(1-Piperazino)-1-[N-[2-(dimethylamino)ethyl]-N-(4-chlorobenzenesulfonyl)]aminobenzene Hydrochloride Salt] displayed a 50% haemolytic concentration (HC50) of over 100 µg/mL.

On to `CN(C)CCN(c1ccccc1N1CCN(c2ccc(Cl)cc2)CC1)S(=O)(=O)c1ccc(Cl)cc1` [Example 132, 2-[4-(4-Chlorophenyl)-1-piperazino]-1-[N-[2-(dimethylamino)ethyl]-N-(4-chlorobenzenesulfonyl)]aminobenzene], for which the Suppression in data set [2] is given as 88%. In addition, the MIC in data set [3] is 3.13 to 12.5 µg/mL.

In data set [2], `CN(C)CCN(c1ccccc1N1CCCN(c2ccc(Cl)cc2)CC1)S(=O)(=O)c1ccc(Cl)cc1.Cl` [Example 135, 2-[4-(4-Chlorophenyl)-1-homopiperazino]-1-[N-[2-(dimethylamino)ethyl]-N-(4-chlorobenzenesulfonyl)]aminobenzene.HCl] gave a Suppression of 89%.

`CN(C)CCN(c1ccccc1Sc1ccc(Cl)cc1)S(=O)(=O)c1ccc(Cl)cc1.Cl` [Example 142, 2-(4-Chlorophenylthio)-N-(4-chlorobenzenesulfonyl)-N-(2-dimethylaminoethyl)aniline.HCl] showed a Suppression in data set [2] of 98%.

In data set [4], `CN(C)CCN(c1ccccc1Oc1ccc(Cl)cc1)S(=O)(=O)c1ccc(Cl)cc1.Cl` [Example 145, 1-[N-[2-(Dimethylamino)ethyl]-N-(4-chlorobenzenesulfonyl)]-2-(4-chlorophenoxy)aniline.HCl] displayed an HC50 of over 100 µg/mL.
